# According to patent publication US5043342A (priority 1988, dated 1991):
# Counter-ions that a name gives are not always drawn. Like-named read-outs stand apart in the source and are kept apart here.
# Experiments:
# muscarinic receptors [1] = assay: Radioligand binding: displacement of the muscarinic agonist 3H-Oxotremorine-M (3H-OXO-M) from rat cerebral cortex; design: species or system Hooded Lister rats; conditions: 2 nM 3H-OXO-M, rat cerebral cortex homogenate, 2 mM magnesium chloride, 37° C., 30 min, tested as the oxalate salt
# muscarinic receptors [2] = assay type: binding, Hooded Lister rats; conditions: 0.27 nM 3H-QNB, rat cerebral cortex homogenate, 37° C., 30 min, tested as the oxalate salt
Structure (SMILES),IC50 (muscarinic receptors [1]) [nM],IC50 (muscarinic receptors [2]) [nM],IC50 (muscarinic receptors [1]; oxalate salt) [nM],IC50 (muscarinic receptors [2]; oxalate salt) [nM]
"CCc1noc([C@@H]2CN3CC[C@@H]2C3)n1 (relative stereo) [Example E1, (±) exo-3-(3-Ethyl-1,2,4-oxadiazol-5-yl)-1-azabicyclo-[2.2.1]heptane oxalate salt]",31,940,,
"CCc1noc(C2CN3CCC2C3)n1 (single isomer, unassigned; (+)) [Example E2, (+) exo-3-(3-Ethyl-1,2,4-oxadiazol-5-yl)-1-azabicyclo-[2.2.1]heptane oxylate salt]",26,1590,,
"CCc1noc(C2CN3CCC2C3)n1 (single isomer, unassigned; (-)) [Example E3, (-) exo-(3-Ethyl-1-1,2,4-oxadiazol-5-y1)-1-azabicyclo-[2.2.1]heptane oxalate salt]",,,36,725
